Columns and labels:
[1] = tested on: Phakopsora pachyrhizi (F129L); experiment: Protective control of soybean rust on soybeans (PHAKPA P6); format: in vivo; conditions: for % PHAKPA (F129L) Disease level P6 at 4 ppm: protective P6, 4 ppm; for % PHAKPA (F129L) Disease level P6 at 4 ppm / % PHAKPA (F129L) Disease level P6 at 16 ppm: soybean rust F129L isolate; for % PHAKPA (F129L) Disease level P6 at 16 ppm: protective P6, 16 ppm
[2] = tested on: Phakopsora pachyrhizi (F129L); experiment: Protective control of soybean rust on soybeans (PHAKPA P2); format: in vivo; conditions: for % PHAKPA (F129L) Disease level P2 at 4 ppm: protective P2, 4 ppm; for % PHAKPA (F129L) Disease level P2 at 4 ppm / % PHAKPA (F129L) Disease level P2 at 16 ppm: soybean rust F129L isolate; for % PHAKPA (F129L) Disease level P2 at 16 ppm: protective P2, 16 ppm

| Structure (SMILES) | % PHAKPA (F129L) Disease level P6 at 4 ppm [1] | % PHAKPA (F129L) Disease level P6 at 16 ppm [1] | PHAKPA (F129L) Disease level (%) P6 at 16 ppm ([1]; protective, inoculation six days after spraying, 16 ppm, % diseased leaf area) | % PHAKPA (F129L) Disease level P2 at 4 ppm [2] | % PHAKPA (F129L) Disease level P2 at 16 ppm [2] | PHAKPA (F129L) Disease level (%) P2 at 16 ppm ([2]; protective, inoculation 2 days after spraying, 16 ppm, % diseased leaf area) | PHAKPA (F129L) Disease level (%) P6 at 4 ppm ([1]; protective, inoculation six days after spraying, 4 ppm, % diseased leaf area) | PHAKPA (F129L) Disease level (%) P2 at 4 ppm ([2]; protective, inoculation 2 days after spraying, 4 ppm, % diseased leaf area) |
| --- | --- | --- | --- | --- | --- | --- | --- | --- |
| CNC(=O)/C(=N/OC)c1cccc(C)c1CO/N=C(\C)c1cc(F)ccc1F [compound 131] | 2% | 0% | 0% | 0% | 0% | 0% |  |  |
| CO/N=C(/C(=O)OC)c1cccc(C)c1CO/N=C(\C)c1ccccc1C(C)C [compound 218] | 100% | 100% |  | 100% | 87% |  |  |  |
| CNC(=O)/C(=N/OC)c1cccc(C)c1CO/N=C(\C)c1ccccc1C1CC1 [compound 219] | 87% | 43% |  | 60% | 8% |  |  |  |
| CNC(=O)/C(=N/OC)c1cccc(C)c1CO/N=C(\C)c1ccccc1C(C)C [compound 220] | 100% | 77% |  | 90% | 30% |  |  |  |
| CNC(=O)/C(=N/OC)c1cccc(C)c1CO/N=C(\C)c1ccccc1CC(C)C [compound 221] | 100% | 100% |  | 100% | 63% |  |  |  |
| CO/N=C(/C(=O)OC)c1cccc(C)c1CO/N=C(\C)c1ccccc1CC(F)(F)F [compound 222] | 100% | 93% |  | 100% | 57% |  |  |  |
| CNC(=O)/C(=N/OC)c1cccc(C)c1CO/N=C(\C)c1ccccc1CC(F)(F)F [compound 223] | 28% | 0% |  | 4% | 0% |  |  |  |
| CO/N=C(/C(=O)OC)c1cccc(C)c1CO/N=C(\C)c1ccccc1C#N [compound 224] | 100% | 100% |  | 97% | 100% |  |  |  |
| CNC(=O)/C(=N/OC)c1cccc(C)c1CO/N=C(\C)c1ccccc1C#N [compound 225] | 100% | 97% |  | 83% | 27% |  |  |  |
| CNC(=O)/C(=N/OC)c1cccc(C)c1CO/N=C(\C)c1cccc(OC/C(C)=N/OC)c1 [compound 226] | 57% | 7% |  | 28% | 3% |  |  |  |
| CO/N=C(\C)COc1cccc(/C(C)=N/OCc2c(C)cccc2/C(=N\OC)C(=O)OC)c1 [compound 227] | 100% | 57% |  | 100% | 47% |  |  |  |
| CNC(=O)/C(=N/OC)c1cccc(C)c1CO/N=C(\C)c1cc(Cl)cc(C(F)(F)F)c1 [compound 228] | 22% | 2% |  | 5% | 0% |  |  |  |
| CO/N=C(/C(=O)OC)c1cccc(C)c1CO/N=C(\C)c1ccc(C)c(C(F)(F)F)c1 [compound 229] | 77% | 6% |  | 27% | 2% |  |  |  |
| CNC(=O)/C(=N/OC)c1cccc(C)c1CO/N=C(\C)c1ccc(C)c(C(F)(F)F)c1 [compound 230] | 73% | 4% |  | 22% | 1% |  |  |  |
| CO/C=C(/C(=O)OC)c1cccc(C)c1CO/N=C(\C)c1cccc(C(F)(F)F)c1 [compound 231] | 2% | 0% |  | 0% | 0% |  | 2% | 0% |
| CNC(=O)/C(=C/OC)c1cccc(C)c1CO/N=C(\C)c1cccc(C(F)(F)F)c1 [compound 232] | 100% | 83% |  | 100% | 73% |  |  |  |

| Structure (SMILES) | % PHAKPA (F129L) Disease level P6 at 4 ppm [1] | % PHAKPA (F129L) Disease level P6 at 16 ppm [1] | PHAKPA (F129L) Disease level (%) P6 at 16 ppm ([1]; protective, inoculation six days after spraying, 16 ppm, % diseased leaf area) | % PHAKPA (F129L) Disease level P2 at 4 ppm [2] | % PHAKPA (F129L) Disease level P2 at 16 ppm [2] | PHAKPA (F129L) Disease level (%) P2 at 16 ppm ([2]; protective, inoculation 2 days after spraying, 16 ppm, % diseased leaf area) | PHAKPA (F129L) Disease level (%) P6 at 4 ppm ([1]; protective, inoculation six days after spraying, 4 ppm, % diseased leaf area) | PHAKPA (F129L) Disease level (%) P2 at 4 ppm ([2]; protective, inoculation 2 days after spraying, 4 ppm, % diseased leaf area) |
| --- | --- | --- | --- | --- | --- | --- | --- | --- |
| CNC(=O)/C(=N/OC)c1cccc(C)c1CO/N=C(\C)c1c(F)ccc(C(F)(F)F)c1NC [compound 233] | 87% | 27% |  | 100% | 57% |  |  |  |
| CNC(=O)/C(=N/OC)c1cccc(C)c1CO/N=C(\CC1CC1)c1cccc(C(F)(F)F)c1 [compound 234] | 53% | 15% |  | 53% | 18% |  |  |  |
| CNC(=O)/C(=N/OC)c1cccc(C)c1CO/N=C(\CC(C)C)c1cccc(C(F)(F)F)c1 [compound 235] | 87% | 77% |  | 100% | 73% |  |  |  |
| CO/N=C(/C(=O)OC)c1cccc(C)c1CO/N=C(\C)c1ccccc1OC(F)(F)F [compound 236] | 97% | 100% |  | 97% | 77% |  |  |  |
| CNC(=O)/C(=N/OC)c1cccc(C)c1CO/N=C(\C)c1cc(C(F)(F)F)cc(F)c1NC [compound 238] | 100% | 77% |  | 100% | 53% |  |  |  |
| CO/N=C(/C(=O)OC)c1cccc(C)c1CO/N=C(\C)c1cc(Br)cc(F)c1F [compound 240] | 73% | 3% |  | 70% | 8% |  |  |  |
| CNC(=O)/C(=N/OC)c1cccc(C)c1CO/N=C(\C)c1cc(Br)cc(F)c1F [compound 241] | 33% | 12% |  | 3% | 0% |  |  |  |
| C#Cc1cc(F)c(F)c(/C(C)=N/OCc2c(C)cccc2/C(=N\OC)C(=O)OC)c1 [compound 242] | 87% | 20% |  | 87% | 10% |  |  |  |
| C#Cc1cc(F)c(F)c(/C(C)=N/OCc2c(C)cccc2/C(=N\OC)C(=O)NC)c1 [compound 243] | 37% | 1% |  | 4% | 0% |  |  |  |
| CNC(=O)/C(=N/OC)c1cccc(C)c1CO/N=C(\C)c1ccc(OC(F)(F)F)cc1Cl [compound 271] |  |  |  | 5% | 1% |  |  |  |
| CNC(=O)/C(=N/OC)c1cccc(C)c1CO/N=C(\C)c1cc(C(F)(F)F)ccc1C(F)(F)F [compound 272] |  |  |  | 60% | 8% |  |  |  |
| CNC(=O)/C(=N/OC)c1cccc(C)c1CO/N=C(\C)c1cc(C(F)(F)F)ccc1C [compound 273] |  |  |  | 60% | 3% |  |  |  |
| CNC(=O)/C(=N/OC)c1cccc(C)c1CO/N=C(\C)c1ccccc1OCOC [compound 314] |  |  |  | 100% | 40% |  |  |  |
| CNC(=O)/C(=N/OC)c1cccc(C)c1CO/N=C(\C)c1ccccc1OC(C)C [compound 315] |  |  |  | 100% | 60% |  |  |  |
| CNC(=O)/C(=N/OC)c1cccc(C)c1CO/N=C(\C)c1ccccc1Oc1ccccc1 [compound 321] |  |  |  | 100% | 40% |  |  |  |
